Measurements taken from patent US20050170966A1, “Surfactants and surfactant compositions” (priority 2002, published 2005).

Experiments:
Format in all cases: in vivo
[1] = tested on: Bindweed (Convolvulus arvensis); assay: Greenhouse trial of adjuvant with glyphosate; settings: for % kill: 7 DAT; for % fresh wt 33 days (foliage): 33 DAT
Description: This Example goves the results of greenhouse trials to investigate the adjuvant properties of compound SE2, with a fatty amine ethoxylate (FAE1) for comparitison, used in combination with glyphosate (isopropylamine salt?) as a herbicide against Couchgrass (Agropyron repens) and Bindweed (Convolvulus arvensis). Glyphosate doses of 180, 360 and 540 g(a.e.).ha^−1 were used against A. repens and 540, 810 and 1080 g(a.e.).ha^−1 against C. arvensis. The spray volume was 200 l.ha^−1 and ratios of glyphosate (active ingredient) to adjuvant of 2:0.75 (37.5%); 2:0.5 (25%); 2:0.25 (12.5%) and 2:0.1 (5%) (percentage figres in brackets are by weight adjuvant based on glyphosate a.e.) were tested. Weed kill was visually assessed 7, 14 and 21 days after treatment (DAT) and the % fresh weight of foliage was determined 22 and 33 DAT for A. repens and C. arvensis respectively. The % kill results at 7 DAT are set out in Table 3a and the % fresh weight of foliage determined 22 and 33 DAT is reported in Table 3b below. The % fresh weight of foliage is determined 22 and 33 DAT for A. repens and C. arvensis respectively and the results are included in Table 3b below: […]

[2] = tested on: Abutilon theophrasti (velvetleaf); assay: Adjuvants for Glyphosate, test plots, visual score
Method: (§1) In this Example the effect of compounds of the invention as adjuvants for Glyphosate as a herbicide against the species Agropyron repens (couch grass) and Abutilon theophrasti (velvetleaf) using FAE1 as a control adjuvant was tested. Test plots were treated by spraying (spray volume 200 l.ha^−1) at varying doses of glyphosate; 180 and 360 g(a.e.).ha^−1 for A. repens and 250 and 500 g(active).ha^−1 for A. theophrasti and ratios of glyphosate to adjuvant (8:1,4:1 and 2:1 by weight). The effect of the herbicide formulations was assessed by visual comparison with untreated control blocks 6, 13 and 19 days after treatment (DAT), scoring as percentages with 0=no effect and 100=complete kill. The results are set out in Table 2 below

[3] = tested on: Agropyron repens (couch grass); assay: Adjuvants for Glyphosate, test plots, visual score
Method: as §1

1-[Bis-(2-hydroxyethyl)-amino]-2-hydroxypropane-3-(Alc1 15-ethoxylate) [SE2]
% kill ([1]; Gly 540, Adj 5% Gly): 14.29%
% kill ([1]; Gly 540, Adj 12.5% Gly): 14.29%
% kill ([1]; Gly 540, Adj 25% Gly): 14.29%
% kill ([1]; Gly 540, Adj 37.5% Gly): 14.29%
% kill ([1]; Gly 810, Adj 5% Gly): 14.29%
% kill ([1]; Gly 810, Adj 12.5% Gly): 17.86%
% kill ([1]; Gly 810, Adj 25% Gly): 14.29%
% kill ([1]; Gly 810, Adj 37.5% Gly): 14.29%
% kill ([1]; Gly 1080, Adj 5% Gly): 14.29%
% kill ([1]; Gly 1080, Adj 12.5% Gly): 14.29%
% kill ([1]; Gly 1080, Adj 25% Gly): 14.29%
% kill ([1]; Gly 1080, Adj 37.5% Gly): 14.29%
% fresh wt 33 days (foliage) ([1]; Gly 540, 5 wt % adjuvant): 54.61%
% fresh wt 33 days (foliage) ([1]; Gly 540, 12.5 wt % adjuvant): 54.21%
% fresh wt 33 days (foliage) ([1]; Gly 540, 25 wt % adjuvant): 54.97%
% fresh wt 33 days (foliage) ([1]; Gly 540, 37.5 wt % adjuvant): 53.73%
% fresh wt 33 days (foliage) ([1]; Gly 810, 5 wt % adjuvant): 53.91%
% fresh wt 33 days (foliage) ([1]; Gly 810, 12.5 wt % adjuvant): 62.03%
% fresh wt 33 days (foliage) ([1]; Gly 810, 25 wt % adjuvant): 52.01%
% fresh wt 33 days (foliage) ([1]; Gly 810, 37.5 wt % adjuvant): 55.38%
% fresh wt 33 days (foliage) ([1]; Gly 1080, 5 wt % adjuvant): 50.55%
% fresh wt 33 days (foliage) ([1]; Gly 1080, 12.5 wt % adjuvant): 53.29%
% fresh wt 33 days (foliage) ([1]; Gly 1080, 25 wt % adjuvant): 46.2%
% fresh wt 33 days (foliage) ([1]; Gly 1080, 37.5 wt % adjuvant): 43.89%
visual herbicide effect score ([2]; glyphosate 250 g.ha^-1, ratio 2:1, 6 DAT): 25%
visual herbicide effect score ([2]; glyphosate 250 g.ha^-1, ratio 2:1, 13 DAT): 32.1%
visual herbicide effect score ([2]; glyphosate 250 g.ha^-1, ratio 2:1, 19 DAT): 42.9%
visual herbicide effect score ([2]; glyphosate 250 g.ha^-1, ratio 4:1, 6 DAT): 17.9%
visual herbicide effect score ([2]; glyphosate 250 g.ha^-1, ratio 4:1, 13 DAT): 28.6%
visual herbicide effect score ([2]; glyphosate 250 g.ha^-1, ratio 4:1, 19 DAT): 35.7%
visual herbicide effect score ([2]; glyphosate 250 g.ha^-1, ratio 8:1, 6 DAT): 21.4%
visual herbicide effect score ([2]; glyphosate 250 g.ha^-1, ratio 8:1, 13 DAT): 28.6%
visual herbicide effect score ([2]; glyphosate 250 g.ha^-1, ratio 8:1, 19 DAT): 42.9%
visual herbicide effect score ([2]; glyphosate 500 g.ha^-1, ratio 2:1, 6 DAT): 28.6%
visual herbicide effect score ([2]; glyphosate 500 g.ha^-1, ratio 4:1, 6 DAT): 28.6%
visual herbicide effect score ([2]; glyphosate 500 g.ha^-1, ratio 8:1, 6 DAT): 25%
visual herbicide effect score ([2]; glyphosate 500 g.ha^-1, ratio 8:1, 13 DAT): 50%
visual herbicide effect score ([2]; glyphosate 500 g.ha^-1, ratio 8:1, 19 DAT): 53.6%
visual herbicide effect score ([3]; glyphosate 180 g.ha^-1, ratio 2:1, 6 DAT): 17.9%
visual herbicide effect score ([3]; glyphosate 180 g.ha^-1, ratio 2:1, 13 DAT): 46.4%
visual herbicide effect score ([3]; glyphosate 180 g.ha^-1, ratio 2:1, 19 DAT): 82.1%
visual herbicide effect score ([3]; glyphosate 180 g.ha^-1, ratio 4:1, 6 DAT): 17.9%
visual herbicide effect score ([3]; glyphosate 180 g.ha^-1, ratio 4:1, 13 DAT): 39.3%
visual herbicide effect score ([3]; glyphosate 180 g.ha^-1, ratio 4:1, 19 DAT): 60%
visual herbicide effect score ([3]; glyphosate 180 g.ha^-1, ratio 8:1, 6 DAT): 25%
visual herbicide effect score ([3]; glyphosate 180 g.ha^-1, ratio 8:1, 13 DAT): 32.1%
visual herbicide effect score ([3]; glyphosate 180 g.ha^-1, ratio 8:1, 19 DAT): 50%
visual herbicide effect score ([3]; glyphosate 360 g.ha^-1, ratio 2:1, 6 DAT): 32.1%
visual herbicide effect score ([3]; glyphosate 360 g.ha^-1, ratio 2:1, 13 DAT): 60.7%
visual herbicide effect score ([3]; glyphosate 360 g.ha^-1, ratio 2:1, 19 DAT): 100%
visual herbicide effect score ([3]; glyphosate 360 g.ha^-1, ratio 4:1, 6 DAT): 25%
visual herbicide effect score ([3]; glyphosate 360 g.ha^-1, ratio 4:1, 13 DAT): 50%
visual herbicide effect score ([3]; glyphosate 360 g.ha^-1, ratio 4:1, 19 DAT): 92.9%
visual herbicide effect score ([3]; glyphosate 360 g.ha^-1, ratio 8:1, 6 DAT): 25%
visual herbicide effect score ([3]; glyphosate 360 g.ha^-1, ratio 8:1, 13 DAT): 46.4%
visual herbicide effect score ([3]; glyphosate 360 g.ha^-1, ratio 8:1, 19 DAT): 78.6%
